Experimental data from patent US10316017B2, “COT modulators and methods of use thereof” (Gilead Sciences, Inc., priority 2015, dated 2019).
Read-outs that look alike come from different tables or passages of the source.

Tests used:
[1] = system: TNFα production in LPS-stimulated human monocytes; experiment: Cot Monocyte TNFα Cell Based Assay; settings: for IC50/EC50 [nM]: EC50 (TNFα, monocytes): second value of the cell IC50/EC50, human monocytes, 50 pg/ml LPS, 4 hours; for EC50: Homo sapiens, Monocyte, LPS-stimulated human monocytes, TNFα TR-FRET, read-out: EC50 TNF
Method in brief: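 Cells at 5,000/well were pretreated with compound for 1 h at 37 °C (0.5% DMSO final), then stimulated with 50 pg/ml LPS for 4 h at 37 °C. Supernatant TNFα was measured by two-antibody TR-FRET after overnight room-temperature incubation; values are percent of control between unstimulated and stimulated wells.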

[2] = target: T1, human Cot catalytic domain (30-397 amino acids) (Homo sapiens, UniProt P41279); experiment: High Throughput Cot Biochemical Assay (KinEASE TR-FRET); settings: 400 μM ATP
T1 construct: Purified recombinant human Cot catalytic domain (30-397 amino acids) was purchased from Cama Biosciences; purchased Cama Biosciences (so in the source)
Method in brief: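 Reaction of 5 nM recombinant human Cot catalytic domain (aa 30-397) with 1 μM STK3 peptide (XL665-labeled) and 400 μM ATP in 10 mM MOPS pH 7.0, 10 mM MgOAc, 1 mM DTT, 0.5 mg/mL BSA, 0.1% DMSO. Phosphopeptide detected by TR-FRET with europium anti-phospho antibody.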

[3] = target: T2, Human EGFR, cytoplasmic domain [669-1210] (Homo sapiens, UniProt P00533); experiment: High Throughput EGFR Biochemical Assay (KinEASE TR-FRET)
T2 construct: purchased Cama Biosciences (so in the source)
Description: Example 62: High Throughput EGFR Biochemical Assay
EGFR activity was measured using KinEASE (Cisbio), a time-resolved fluorescence resonance energy transfer (TR-FRET) immunoassay. In this assay, EGFR-catalyzes the phosphorylation of a universal Tyrosine kinase peptide substrate labeled with XL665. Europium conjugated phosphor-tyrosine specific antibody binds the resulting phosphorylated peptide. Formation of phosphorylated peptide is quantified by TR-FRET with Europium as the donor and XL665 the acceptor. The assay was performed in two main steps. The first step is the kinase reaction step and the second step is the detection step with TR-FRET reagents. In brief, test compounds 1:3 serially diluted in DMSO were delivered into Corning white, low volume, non-binding 384 well plates using the Echo 550 acoustic liquid dispenser (Labcyte®). […] After 60 min of incubation at room temperature, 10 μL of Stop and Detect Solution (1:400 Europium Cryptate labeled anti-phosphorylated peptide antibody solution and 125 nM strepavidin-XL665 Tracer in a 50 mM Hepes pH 7.0 detection buffer containing sufficient EDTA) was added.

[4] = Cot KinEASE TR-FRET, read-out: IC50 HTRF

T1 sequence (P41279 30-397): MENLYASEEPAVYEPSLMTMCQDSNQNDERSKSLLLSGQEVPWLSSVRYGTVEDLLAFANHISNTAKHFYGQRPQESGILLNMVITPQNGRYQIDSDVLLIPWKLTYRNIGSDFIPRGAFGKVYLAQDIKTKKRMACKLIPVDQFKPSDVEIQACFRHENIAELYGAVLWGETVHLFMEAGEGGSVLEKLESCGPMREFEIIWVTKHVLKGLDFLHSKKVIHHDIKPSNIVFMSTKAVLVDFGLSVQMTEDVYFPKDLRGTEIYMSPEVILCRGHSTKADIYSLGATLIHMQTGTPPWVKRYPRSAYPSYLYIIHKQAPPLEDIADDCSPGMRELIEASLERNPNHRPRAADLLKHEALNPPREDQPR
T2 sequence (P00533 669-1210): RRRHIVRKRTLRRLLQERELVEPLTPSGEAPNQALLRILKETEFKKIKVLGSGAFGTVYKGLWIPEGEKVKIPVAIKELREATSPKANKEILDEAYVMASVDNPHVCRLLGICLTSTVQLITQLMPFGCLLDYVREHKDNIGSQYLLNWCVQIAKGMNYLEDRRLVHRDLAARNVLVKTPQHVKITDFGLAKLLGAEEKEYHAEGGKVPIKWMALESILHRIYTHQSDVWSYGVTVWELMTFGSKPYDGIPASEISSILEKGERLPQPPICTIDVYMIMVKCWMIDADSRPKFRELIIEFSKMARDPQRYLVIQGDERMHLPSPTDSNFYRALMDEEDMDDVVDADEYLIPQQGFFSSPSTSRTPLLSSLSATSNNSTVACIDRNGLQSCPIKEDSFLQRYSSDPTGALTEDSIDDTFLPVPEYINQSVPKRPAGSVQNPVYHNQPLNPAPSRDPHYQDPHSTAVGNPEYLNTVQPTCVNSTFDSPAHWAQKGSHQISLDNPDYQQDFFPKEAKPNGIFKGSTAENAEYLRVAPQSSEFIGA

SMILES	IC50/EC50 [nM]: EC50 (TNFα, monocytes) [1]	IC50 ([2]; IC50/EC50 [nM]: IC50 (Cot), first value of the cell IC50/EC50, 5 nM Cot)	IC50 [3]	IC50 ([2]; first value of the cell IC50/EC50, 5 nM Cot, read-out: IC50/EC50 [nM]: IC50 (Cot))	EC50 [1]	IC50 [2, 4]
Cn1cc(CNc2cc(Cl)c3ncc(C#N)c(Nc4ccc(F)c(Cl)c4)c3c2)nn1 [Comparative Example 3, reference compound]	> 10000 nM	67 nM	> 10000 nM	–	–	–
CC(Nc1cc(Cl)c2ncc(C#N)c(Nc3ccc(F)c(Cl)c3)c2c1)c1cn(C)nn1 (stereo not drawn) [Comparative Example 4, reference compound]	–	–	> 10000 nM	> 10000 nM	–	–
CCN1CCC(n2cc([C@@H](Nc3cc(Cl)c4ncc(C#N)c(Nc5ccc(F)c(Cl)c5)c4c3)c3ccccc3)nn2)CC1 [Example 919, (S)-8-chloro-4-((3-chloro-4-fluorophenyl)amino)-6-(((1-(1-ethylpiperidin-4-yl)-1H-1,2,3-triazol-4-yl)(phenyl)methyl)amino) quinoline-3-carbonitrile]	62 nM	–	2290 nM	–	62 nM	2 nM
Cn1cc(C(Nc2cc(Cl)c3ncc(C#N)c(Nc4ccc(F)c(Cl)c4)c3c2)c2ccccc2)nn1 (stereo not drawn) [Example 920, 8-chloro-4-((3-chloro-4-fluorophenyl)amino)-6-(((1-methyl-1H-1,2,3-triazol-4-yl)(phenyl)methyl)amino) quinoline-3-carbonitrile]	215 nM	–	> 10000 nM	–	215 nM	10 nM
Cc1c(-c2cn[nH]c2)cccc1[C@H](Nc1cc(Cl)c2ncc(C#N)c(NCC(C)(C)C)c2c1)c1cn(C2(C(F)(F)F)CC2)nn1 [Example 1164, (S)-8-chloro-6-(((2-methyl-3-(1H-pyrazol-4-yl)phenyl) (1-(1-(trifluoromethyl)cyclopropyl)-1H-1,2,3-triazol-4-yl)methyl)amino)-4-(neopentylamino) quinoline-3-carbonitrile]	–	–	–	–	66 nM	13 nM
Cc1c(-c2cnco2)cccc1[C@H](Nc1cc(Cl)c2ncc(C#N)c(NCC(C)(C)C)c2c1)c1cn(C2(C(F)(F)F)CC2)nn1 [Example 1165, (S)-8-chloro-6-(((2-methyl-3 (oxazol-5-yl)phenyl)(1-(1-(trifluoromethyl)cyclopropyl)-1H-1,2,3-triazol-4-yl)methyl)amino)-4-(neopentylamino)quinoline-3-carbonitrile]	–	–	–	–	102 nM	9 nM
Cc1c(-c2cn[nH]c2)cccc1[C@H](Nc1cc(Cl)c2ncc(C#N)c(NCC(C)(C)C)c2c1)c1cn(C2(C(F)F)CC2)nn1 [Example 1166, (S)-8-chloro-6-(((1-(1-(difluoromethyl)cyclopropyl)-1H-1,2,3-triazol-4-yl) (2-methyl-3-(1H-pyrazol-4-yl)phenyl)methyl)amino)-4-(neopentylamino)quinoline-3-carbonitrile]	–	–	–	–	47 nM	5 nM
Cc1c(-c2cnco2)cccc1[C@H](Nc1cc(Cl)c2ncc(C#N)c(NCC(C)(C)C)c2c1)c1cn(C2(C(F)F)CC2)nn1 [Example 1167, (S)-8-chloro-6-(((1-(1-(difluoromethyl)cyclopropyl)-1H-1,2,3-triazol-4-yl)(2-methyl-3-(oxazol-5-yl)phenyl)methyl)amino)-4-(neopentylamino)quinoline-3-carbonitrile]	–	–	–	–	62 nM	5 nM
Cc1c(C#N)cccc1[C@H](Nc1cc(Cl)c2ncc(C#N)c(NCC(C)(C)C)c2c1)c1nnn(C2(C(F)F)CC2)c1F [Example 1168, (S)-8-chloro-6-(((3-cyano-2-methylphenyl)(1-(1-(difluoromethyl)cyclopropyl)-5-fluoro-1H-1,2,3-triazol-4-yl)methyl)amino)-4-(neopentylamino)quinoline-3-carbonitrile]	–	–	–	–	75 nM	4 nM
CC(C)(C)CNc1c(C#N)cnc2c(Cl)cc(N[C@@H](c3ccccc3Cl)c3nnn(C4(C)CC4)c3F)cc12 [Example 1169, (S)-8-chloro-6-(((2-chlorophenyl)(5-fluoro-1-(1-methylcyclopropyl)-1H-1,2,3-triazol-4-yl)methyl)amino)-4-(neopentylamino)quinoline-3-carbonitrile]	–	–	–	–	≥ 1000 nM	234 nM
COc1c([C@@H](Nc2cc(Cl)c3ncc(C#N)c(NCC(C)(C)C)c3c2)c2ccccc2Cl)nnn1C1(C)CC1 [Example 1170, (S)-8-chloro-6-(((2-chlorophenyl)(5-methoxy-1-(1-methylcyclopropyl)-1H-1,2,3-triazol-4-yl)methyl)amino)-4-(neopentylamino)quinoline-3-carbonitrile]	–	–	–	–	≥ 1000 nM	217 nM
